Assays:
Parameters in all cases: species or system rat
[1] = system: large intestinal peristaltic motility; test: Test 1: action of each Daikenchuto component on peristaltic motility of the isolated intestine in an organ bath; details: for AUC (area under curve peak) / Mean-PPA (mean of peak pressure amplitude) / PF (peak frequency): value before addition = 100%
Description: Investigation of the Action of Each Crude Drug Component Contained in Daikenchuto on the Large Intestinal Peristaltic Motility:
Rats were used as experimental animals. According to the following way, the components contained in Daikenchuto, i.e., HAS, 6-shogaol (hereinafter abbreviated as “6-S”) and 6-gingerol (hereinafter abbreviated as “6-G”), were tested for the action on the peristaltic motility.
Male SD rats (provided by Japan Charles River Co.; SPF animals) were obtained at 6 weeks of age (body weight: 190-220 g) and the test was started at 7-9 weeks of age (body weight: 220-280 g at acquisition and using). Breeding was conducted at a temperature of 20-26° C. and a humidity of 35-75%, in aeration frequency of 15-25/hour in a cage under lighting for 12 hours (7 o'clock to 19 o'clock) per day, wherein 4 rats were placed in a cage. For feeding, solid feed MF (Oriental Yeast Co., Ltd.) was used, and the rats were able to freely drink ordinary tap water (Amimachi, Ibaraki Pref).
(§1) Normal rats which fasted overnight with free access to water were decapitated for mercy killing. Immediately, the intestine was removed and cut into 3-4 cm pieces, which were used as test samples. The removed test samples were immersed in an organ bath (perfusion rate: 3.5 mL/min) filled with a Krebs solution warmed at 32-33° C. and saturated with 95% O2/5% CO2 gas mixture. […] From the mouth side, physiological saline was injected at a certain rate (0.15 mL/min), and the frequency and amplitude of the pressure change in the lumen caused by the intestinal peristaltic motility were measured by means of a microchip pressure transducer (SPR-524, Millar Instruments Co.). After confirmation of the stabilized peristaltic motility in the test samples (intestinal tract), a test drug was added to the organ bath. Before and after the addition, the change of peristaltic motility for 10 minutes was determined by using recorded wave profile for the mean peak pressure amplitude (mean-PPA), the area under curve (AUC) of the peak and the peak frequency (PF) in the transducer. The resulting recorded wave profile was converted into numerical terms as the amplitude or frequency of the peristaltic motility by an analysis software. The value before the addition of the test drug was regarded as 100% for comparison and evaluation.

[2] = system: intestinal peristaltic motility; test: Test 3: peristaltic motility, HAS and CAP alone and combined, same manner as Test 1; details: for AUC (area under curve peak) / Mean-PPA (mean of peak pressure amplitude) / PF (peak frequency): value before addition = 100%
Description: as §1
The respective prokinetic effect of HAS and CAP on peristaltic motility and change of the effect in a combination of these compounds were investigated in the same manner as in Test 1.

[3] = system: intestinal peristaltic motility; test: Test 4: peristaltic motility, HAS and bethanechol chloride alone and combined, same manner as Test 1; details: for AUC (area under curve peak) / Mean-PPA (mean of peak pressure amplitude) / PF (peak frequency): value before addition = 100%
Description: as §1, with “After confirmation of the stabilized peristaltic motility in the test samples (intestinal tract), a test drug was added to the organ bath. Before and after the addition, the change of peristaltic motility for 10 minutes was determined by using recorded wave profile for the mean peak pressure amplitude (mean-PPA), the area under curve (AUC) of the peak and the peak frequency (PF) in the transducer.” left out

[4] = system: intestinal peristaltic motility; test: Test 2: peristaltic motility, combinations of HAS with 6-S or 6-G, same manner as Test 1; details: for AUC (area under curve peak) / Mean-PPA (mean of peak pressure amplitude) / PF (peak frequency): value before addition = 100%; for enhancement of the prokinetic effect on peristaltic motility by combining with HAS (in words): combined with HAS at a dose too low to exert the effect when used alone
Description: as §1
On the basis of the prokinetic effect of HAS, 6-S and 6-G on peristaltic motility in Test 1, the change of the prokinetic effect in a combination of these compounds was investigated in the same manner as in Test 1.

[5] = HAS 3 μM + CAP 0.03 μM versus CAP alone

Row | Structure (SMILES) | prokinetic effect on peristaltic motility (in words) ([1]; 10 μM) | AUC (area under curve peak) ([1]; 10 μM) [%] | Mean-PPA (mean of peak pressure amplitude) ([1]; 10 μM) [%] | PF (peak frequency) ([1]; 10 μM) [%] | AUC (area under curve peak) ([4]; 3 μM) [%] | Mean-PPA (mean of peak pressure amplitude) ([4]; 3 μM) [%] | PF (peak frequency) ([4]; 3 μM) [%] | prokinetic effect on peristaltic motility (in words) ([1]; 1 μM) | AUC (area under curve peak) ([1]; 1 μM) [%] | Mean-PPA (mean of peak pressure amplitude) ([1]; 1 μM) [%] | PF (peak frequency) ([1]; 1 μM) [%] | enhancement of the prokinetic effect on peristaltic motility by combining with HAS (in words) [4] | also measured
1 | C/C=C/C=C/C=C\CC/C=C/C(=O)NCC(C)(C)O [HAS, Hydroxy-α-sanshool] | very strong prokinetic effect | 227.9 | 478.2 | 52.5 | 99.0 | 101.2 | 93.0 | – | – | – | – | – | prokinetic effect on peristaltic motility (in words) ([1]; 3 μM): no influence; AUC (area under curve peak) ([1]; 3 μM): 121.5%; Mean-PPA (mean of peak pressure amplitude) ([1]; 3 μM): 119.5%; PF (peak frequency) ([1]; 3 μM): 98.3%; AUC (area under curve peak) ([2]; 3 μM): 110.2%; Mean-PPA (mean of peak pressure amplitude) ([2]; 3 μM): 105.7%; PF (peak frequency) ([2]; 3 μM): 98.7%; enhancement by HAS of the increase in AUC induced by CAP [2, 5]: ~4.6 times; enhancement by HAS of the increase in PPA induced by CAP [2, 5]: about 9.8 times; AUC (area under curve peak) ([3]; 3 μM): 130.6%; Mean-PPA (mean of peak pressure amplitude) ([3]; 3 μM): 105.2%; PF (peak frequency) ([3]; 3 μM): 84.6%; enhancement by HAS of the increase in PF induced by Beth ([3]; HAS 3 μM + Beth 1 μM versus Beth alone): twice or more
2 | COc1cc(CNC(=O)CCCC/C=C/C(C)C)ccc1O [CAP, capsaicin] | – | – | – | – | – | – | – | – | – | – | – | – | AUC (area under curve peak) ([2]; 0.03 μM): 147.1%; Mean-PPA (mean of peak pressure amplitude) ([2]; 0.03 μM): 143.7%; PF (peak frequency) ([2]; 0.03 μM): 108.1%
3 | CCCCC[C@H](O)CC(=O)CCc1ccc(O)c(OC)c1 [6-G, 6-gingerol] | significant prokinetic effect | 188.2 | 304.2 | 76.9 | 174.9 | 235.8 | 102.9 | weak prokinetic effect | 120.5 | 141.1 | 115.0 | potent enhancement | –
4 | CC(C[N+](C)(C)C)OC(N)=O (centres unmarked) [Beth, bethanechol chloride] | – | – | – | – | – | – | – | – | – | – | – | – | AUC (area under curve peak) ([3]; 1 μM): 87.6%; Mean-PPA (mean of peak pressure amplitude) ([3]; 1 μM): 98.9%; PF (peak frequency) ([3]; 1 μM): 153.8%
5 | CCCCC/C=C/C(=O)CCc1ccc(O)c(OC)c1 [6-S, 6-shogaol] | prokinetic effect disappeared | 73.4 | 94.6 | 120.8 | – | – | – | promoted weakly | 133.3 | 202.6 | 102.6 | potent enhancement | AUC (area under curve peak) ([4]; 1 μM): 133.3%; Mean-PPA (mean of peak pressure amplitude) ([4]; 1 μM): 202.6%; PF (peak frequency) ([4]; 1 μM): 115.0%

Reference: patent US8623914B2, “Medical composition” (TSUMURA & Co., priority 2011, dated 2014)
